Like-named read-outs stand apart in the source and are kept apart here.

Common to all, as to experiment: selectivity profiling in a panel of 340 wild-type kinases (Reaction Biology Europe)
What all share (assay type): binding

Test [1] concerns the target T1, 340 wild-type kinases (Homo sapiens, UniProt P53350).
T1 construct: purchased Reaction Biology Europe

The target in test [2] is T2, 340 wild-type kinases (Homo sapiens, UniProt P54762).
T2 construct: purchased Reaction Biology Europe
T2 sequence (P54762 18-984): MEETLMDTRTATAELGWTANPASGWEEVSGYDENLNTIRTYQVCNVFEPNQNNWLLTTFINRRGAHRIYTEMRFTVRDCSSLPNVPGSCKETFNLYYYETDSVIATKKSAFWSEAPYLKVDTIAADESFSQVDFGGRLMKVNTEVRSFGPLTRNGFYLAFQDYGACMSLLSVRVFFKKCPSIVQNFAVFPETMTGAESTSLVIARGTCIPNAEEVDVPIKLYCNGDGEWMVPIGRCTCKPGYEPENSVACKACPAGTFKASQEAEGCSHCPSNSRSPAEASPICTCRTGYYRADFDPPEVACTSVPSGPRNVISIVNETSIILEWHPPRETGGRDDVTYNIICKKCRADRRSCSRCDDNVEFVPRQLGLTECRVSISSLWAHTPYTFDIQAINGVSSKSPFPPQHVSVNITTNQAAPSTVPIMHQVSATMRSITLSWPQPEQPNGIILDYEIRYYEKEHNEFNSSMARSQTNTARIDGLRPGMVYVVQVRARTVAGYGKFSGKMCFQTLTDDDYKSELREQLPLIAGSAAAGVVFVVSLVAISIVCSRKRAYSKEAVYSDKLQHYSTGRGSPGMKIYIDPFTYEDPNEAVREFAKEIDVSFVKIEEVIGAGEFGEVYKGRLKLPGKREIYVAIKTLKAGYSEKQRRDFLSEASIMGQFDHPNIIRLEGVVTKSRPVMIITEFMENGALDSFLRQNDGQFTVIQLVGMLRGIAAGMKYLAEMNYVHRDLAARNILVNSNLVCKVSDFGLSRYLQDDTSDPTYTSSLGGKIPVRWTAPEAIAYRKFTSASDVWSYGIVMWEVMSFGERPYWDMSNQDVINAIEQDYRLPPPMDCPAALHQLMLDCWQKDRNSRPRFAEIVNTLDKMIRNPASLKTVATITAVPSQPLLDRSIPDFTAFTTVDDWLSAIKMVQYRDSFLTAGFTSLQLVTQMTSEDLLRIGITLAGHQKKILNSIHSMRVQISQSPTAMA

For test [3], the target named is T3, 340 wild-type kinases (Homo sapiens, UniProt Q99683).
T3 construct: purchased Reaction Biology Europe
T3 sequence (Q99683 1-1374): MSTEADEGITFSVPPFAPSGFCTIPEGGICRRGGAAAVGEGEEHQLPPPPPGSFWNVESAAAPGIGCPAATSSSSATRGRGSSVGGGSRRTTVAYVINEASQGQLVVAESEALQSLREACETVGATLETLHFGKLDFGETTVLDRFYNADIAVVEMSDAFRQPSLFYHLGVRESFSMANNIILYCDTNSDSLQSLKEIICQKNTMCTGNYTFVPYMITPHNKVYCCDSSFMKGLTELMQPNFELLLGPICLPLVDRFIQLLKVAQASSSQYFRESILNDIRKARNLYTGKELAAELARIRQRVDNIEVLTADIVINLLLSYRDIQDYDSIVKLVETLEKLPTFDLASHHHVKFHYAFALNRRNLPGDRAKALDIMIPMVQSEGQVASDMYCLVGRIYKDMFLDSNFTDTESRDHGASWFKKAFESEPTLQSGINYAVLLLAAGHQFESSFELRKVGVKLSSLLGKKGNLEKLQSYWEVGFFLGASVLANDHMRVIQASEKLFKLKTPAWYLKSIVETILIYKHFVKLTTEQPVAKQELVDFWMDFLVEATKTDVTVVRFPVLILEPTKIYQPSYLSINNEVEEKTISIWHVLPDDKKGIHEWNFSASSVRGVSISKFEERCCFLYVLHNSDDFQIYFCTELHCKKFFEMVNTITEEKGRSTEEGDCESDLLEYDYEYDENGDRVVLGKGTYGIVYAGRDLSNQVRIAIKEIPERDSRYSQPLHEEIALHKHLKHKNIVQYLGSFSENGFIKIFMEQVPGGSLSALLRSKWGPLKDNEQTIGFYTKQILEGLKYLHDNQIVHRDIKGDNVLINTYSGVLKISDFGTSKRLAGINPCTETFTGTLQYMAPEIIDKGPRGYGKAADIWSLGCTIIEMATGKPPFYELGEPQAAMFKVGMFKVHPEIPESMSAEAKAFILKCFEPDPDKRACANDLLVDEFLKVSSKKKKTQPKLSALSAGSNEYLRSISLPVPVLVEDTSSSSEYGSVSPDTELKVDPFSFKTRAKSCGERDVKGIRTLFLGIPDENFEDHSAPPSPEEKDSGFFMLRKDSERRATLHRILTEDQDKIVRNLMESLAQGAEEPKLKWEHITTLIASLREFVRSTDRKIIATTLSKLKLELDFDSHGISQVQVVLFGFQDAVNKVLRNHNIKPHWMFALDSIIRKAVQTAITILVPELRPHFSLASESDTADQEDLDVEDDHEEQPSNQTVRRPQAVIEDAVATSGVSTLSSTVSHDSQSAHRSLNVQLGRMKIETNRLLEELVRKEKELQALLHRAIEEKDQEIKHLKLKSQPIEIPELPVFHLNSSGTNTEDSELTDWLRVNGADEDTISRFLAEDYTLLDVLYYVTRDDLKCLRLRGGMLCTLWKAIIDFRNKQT

T1 sequence (P53350 whole entry): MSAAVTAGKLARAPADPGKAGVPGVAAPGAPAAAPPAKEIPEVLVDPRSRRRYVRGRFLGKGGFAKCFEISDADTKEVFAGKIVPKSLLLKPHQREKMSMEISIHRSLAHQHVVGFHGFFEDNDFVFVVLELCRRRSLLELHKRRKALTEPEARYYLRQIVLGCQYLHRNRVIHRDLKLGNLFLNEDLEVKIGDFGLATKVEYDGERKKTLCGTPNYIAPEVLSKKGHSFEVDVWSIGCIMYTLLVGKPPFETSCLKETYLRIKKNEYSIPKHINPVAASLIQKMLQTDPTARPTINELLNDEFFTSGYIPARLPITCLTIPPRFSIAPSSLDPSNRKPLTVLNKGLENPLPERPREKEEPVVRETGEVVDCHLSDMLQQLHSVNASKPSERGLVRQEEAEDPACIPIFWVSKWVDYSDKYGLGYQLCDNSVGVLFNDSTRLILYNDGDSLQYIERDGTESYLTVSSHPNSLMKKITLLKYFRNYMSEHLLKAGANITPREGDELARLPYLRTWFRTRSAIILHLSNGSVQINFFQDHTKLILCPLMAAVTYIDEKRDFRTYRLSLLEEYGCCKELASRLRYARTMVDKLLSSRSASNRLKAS

Consider `CNC(=O)c1ccc2c(c1)C(=O)c1ccc(Nc3ccc(F)c(NC(=O)C4CC4)c3)cc1CC2` [Compound 2015], for which the remaining activity at 0.2 µM on 340 wild-type kinases [1] (0.2 µM 2015, read-out: PLK1 residual activity) amounted to 94.2%; at 340 wild-type kinases [1] (PLK1, 0.2 µM, read-out: residual activity), 94.2%; on 340 wild-type kinases [2] (0.2 µM 2015, read-out: EPHB1 residual activity), 118%; on 340 wild-type kinases [2] (EPHB1, 0.2 µM, read-out: residual activity), 118%; on 340 wild-type kinases [3] (0.2 µM 2015, read-out: ASK1 residual activity), 95.5%; on 340 wild-type kinases [3] (ASK1, 0.2 µM, read-out: residual activity), 95.5%. Further, the remaining activity at 1 µM on 340 wild-type kinases [1] (1 µM 2015, read-out: PLK1 residual activity) turned out to be 96.3%; on 340 wild-type kinases [1] (PLK1, 1 µM, read-out: residual activity), 96.3%; on 340 wild-type kinases [2] (1 µM 2015, read-out: EPHB1 residual activity), 103%; on 340 wild-type kinases [2] (EPHB1, 1 µM, read-out: residual activity), 103%; at 340 wild-type kinases [3] (1 µM 2015, read-out: ASK1 residual activity) it was 95%; on 340 wild-type kinases [3] (ASK1, 1 µM, read-out: residual activity) it was 95%.

(Values after publication PMC11864979, “First-in-class ultralong-target-residence-time p38α inhibitors as a mitosis-targeted therapy for colorectal cancer” (Nature Cancer, 2025).)
